This is an account of results in patent US9873717B2, “TRH binding site in human CNS” (THE PROVOST, FELLOWS, FOUNDATION SCHOLARS, AND THE OTHER …, priority 2012, dated 2018).

As a reminder, the IC50 is the concentration at which inhibition is half-maximal. What is called Ki is the equilibrium dissociation constant of an inhibitor or competing ligand from its target. One may read the Kd as the constant that tells how readily two partners part at equilibrium.

The test system of assay [1] is TRHR1. The note with it: Scalabrino 2007, Hogan 2008; cited from earlier work.
The test system of assay [2] is TRHR1. The assay is described as follows: Displacement of [3H][3-Me-His2]TRH, membranes from CHO cells transfected with TRHR1. The note with it: N = 2; read-out: IC50, displacement of [^3H][3-Me-His^2]TRH, membranes from Chinese Hamster Ovary cells transfected with TRHR1. The format is binding. On the technique in general: In a radioligand displacement assay an active substance lowers the binding of a labelled ligand.

In assay [3] the target is T1, TRHR1 (GH4 pituitary cell line, naturally expresses TRHR1) (Rattus norvegicus, UniProt Q01717).
T1 construct: a GH4 pituitary cell line, which naturally expresses TRHR1; endogenous in cells; host or cells: GH4 pituitary cell membranes
T1 sequence (Q01717 1-412): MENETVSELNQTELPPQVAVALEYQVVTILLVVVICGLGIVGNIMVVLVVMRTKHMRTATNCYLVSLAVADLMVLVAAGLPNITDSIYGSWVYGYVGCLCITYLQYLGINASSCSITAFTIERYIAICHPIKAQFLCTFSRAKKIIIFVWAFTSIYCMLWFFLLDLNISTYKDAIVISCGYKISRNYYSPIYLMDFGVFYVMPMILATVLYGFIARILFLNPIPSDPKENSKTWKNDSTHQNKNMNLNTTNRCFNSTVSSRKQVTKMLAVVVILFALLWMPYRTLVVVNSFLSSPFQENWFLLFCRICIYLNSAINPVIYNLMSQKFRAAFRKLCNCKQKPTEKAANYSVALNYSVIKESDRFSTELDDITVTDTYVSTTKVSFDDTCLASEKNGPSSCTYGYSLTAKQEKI
The following applies: Scalabrino 2007, Hogan 2008; cited from earlier work.

Assay [4] concerns the target T2, TRH receptors in rat pituitary tissue (Rattus norvegicus, UniProt Q01717).
T2 construct: host or cells: rat pituitary tissue
T2 sequence (Q01717 1-412): T1 sequence (Q01717 1-412)
The note with it: cited from earlier work.

Assay [5] deals with T1, TRHR1 (GH4 pituitary cell line, naturally expresses TRHR1). The assay is described as follows: Displacement of [3H][3-Me-His2]TRH, GH4 cell membranes. It counts as binding. The note with it: N = 2; read-out: IC50, displacement of [^3H][3-Me-His^2]TRH, GH4 cell membranes.
In assay [6] the test system is [^3H][3-Me-His^2]TRH-labelled native TRH receptors in rat hippocampal membranes. The following applies: Scalabrino 2007, Hogan 2008; cited from earlier work.
The test system of assay [7] is TRH receptors in human CNS tissue (cortical, hippocampal, spinal cord). The assay is described as follows: Competition binding with [3H][3-Me-His2]TRH, human CNS tissue membranes. The following applies: for IC50: 5 h at 4° C. Here is the method:
Competition binding assays using human tissue prepared from individual donors with no history of neurological disease were carried out essentially as previously described (Kelly et al., 2002; Scalabrino et al., 2007; […] Separation of bound and free ligand was achieved by vacuum filtration through GF/C or GF/B filters, followed by washing with 3×5 ml of ice-cold NaCl or Tris-HCl buffer. The radioactivity retained on the filters was measured by liquid scintillation counting.

The target of assay [8] is T3, TRHR2 (Rattus norvegicus, UniProt A6IZR3).
T3 construct: host or cells: CHO cells expressing TRHR2
T3 sequence (A6IZR3 1-352): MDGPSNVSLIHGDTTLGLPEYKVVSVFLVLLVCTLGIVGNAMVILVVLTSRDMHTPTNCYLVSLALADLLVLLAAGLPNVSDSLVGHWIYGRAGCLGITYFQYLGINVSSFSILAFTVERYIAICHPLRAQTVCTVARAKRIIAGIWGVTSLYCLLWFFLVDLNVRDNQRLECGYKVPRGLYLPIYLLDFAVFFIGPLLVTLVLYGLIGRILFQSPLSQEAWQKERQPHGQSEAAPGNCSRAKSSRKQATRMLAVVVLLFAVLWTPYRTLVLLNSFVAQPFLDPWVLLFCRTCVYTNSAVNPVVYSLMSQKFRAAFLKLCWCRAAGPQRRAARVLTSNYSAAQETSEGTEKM
The following applies: Scalabrino 2007, Hogan 2008; cited from earlier work.

Assay [9] addresses T4, TRH receptors in human pituitary tissue (Homo sapiens, UniProt P34981).
T4 construct: from tissue; host or cells: human pituitary membranes from individual donors
T4 sequence (P34981 1-398): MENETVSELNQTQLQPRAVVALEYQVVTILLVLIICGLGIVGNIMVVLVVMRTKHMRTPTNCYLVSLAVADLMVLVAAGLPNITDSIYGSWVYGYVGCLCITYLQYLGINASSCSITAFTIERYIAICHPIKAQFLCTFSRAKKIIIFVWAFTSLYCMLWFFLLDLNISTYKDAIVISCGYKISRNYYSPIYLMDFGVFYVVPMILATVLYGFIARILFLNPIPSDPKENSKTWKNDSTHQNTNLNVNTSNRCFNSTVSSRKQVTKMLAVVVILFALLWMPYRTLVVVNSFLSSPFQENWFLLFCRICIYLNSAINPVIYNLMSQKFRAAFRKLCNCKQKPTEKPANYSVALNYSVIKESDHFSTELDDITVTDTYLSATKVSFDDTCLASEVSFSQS
The assay is described as follows: Competition binding with [3H][3-Me-His2]TRH, human pituitary tissue membranes. On the procedure: To investigate the binding of Glp-Asn-Pro-D-Tyr-D-TrpNH2 in human tissue, radioligand binding studies were carried out employing [^3H][3-Me-His^2]TRH to label TRH receptors in cortical, hippocampal, spinal cord and pituitary tissue membranes from human tissue.
Competition binding assays using human tissue prepared from individual donors with no history of neurological disease were carried out essentially as previously described (Kelly et al., 2002; Scalabrino et al., 2007; Hogan et al., 2008) by incubating membrane suspension, [^3H][3-Me-His^2]TRH, and increasing concentrations of peptide for 5 h at 4° C. Non-specific binding (NSB) was determined in the presence of 10 μM TRH. Separation of bound and free ligand was achieved by vacuum filtration through GF/C or GF/B filters, followed by washing with 3×5 ml of ice-cold NaCl or Tris-HCl buffer. The radioactivity retained on the filters was measured by liquid scintillation counting.

For assay [10], the target named is [^3H][3-Me-His^2]TRH-labelled native TRH receptors in rat hippocampal membranes. The assay is described as follows: Displacement of [3H][3-Me-His2]TRH, native rat hippocampal membranes. The format is binding. The note with it: native rat tissue; N = 3-6.
Assay [11] concerns the target [^3H][3-Me-His^2]TRH-labelled native TRH receptors in rat cortical membranes. The assay is described as follows: Displacement of [3H][3-Me-His2]TRH, native rat cortical membranes. The note with it: native rat tissue; N = 3-6. It counts as binding.
The subject of assay [12] is [^3H][3-Me-His^2]TRH-labelled native TRH receptors in rat cortical membranes. The following applies: cited from earlier work.
Assay [13] concerns the target TRH receptors in human amygdala. The following applies: saturable binding; prior studies; read-out: Kd of radioligand binding in human amygdala; cited from earlier work.
Where [14] appears, read: human CNS tissue, read-out: IC50, displacement of [^3H][3-Me-His^2]TRH from CNS tissue.

“Also recorded” adds a separate entry of the source. Read-outs that look alike come from different tables or passages of the source. Non-standard residues stand in square brackets, D forms with d. Residues, ends and D or L forms follow the SMILES beside them. *: point of attachment. AMC = Cc1cc(=O)oc2cc(N*)ccc12; pGlu = O=C1CC[C@@H](C(=O)O)N1 Where only a bound is given, the exact number is not on record here.

Turning to `NC(=O)C[C@H](NC(=O)[C@@H]1CCC(=O)N1)C(=O)N1CCC[C@H]1C(=O)N[C@H](Cc1ccc(O)cc1)C(=O)N[C@H](Cc1c[nH]c2ccccc12)C(N)=O` [Glp-Asn-Pro-D-Tyr-D-TrpNH2] ([pGlu]NP[dY][dW]-NH2), the “displacement of [^3H][3-Me-His^2]TRH binding from CHO-TRHR1 membranes (in words)” value in assay [1] is “does not displace”. The IC50 in assay [2] is above 100 µM; in assay [5], above 100 µM; in [7] (setting [14]) it was around 0.1 µM; in assay [7] (human hippocampal membranes, read-out: IC50, displacement of [^3H][3-Me-His^2]TRH from hippocampal membranes), around 0.01 µM. Besides, the “displacement of [^3H][3-Me-His^2]TRH binding from GH4 membranes (in words)” value in assay [3] was “does not displace”. Also, the “displacement of [^3H][3-Me-His^2]TRH binding from native rat pituitary tissue (in words)” value in [4] (Scalabrino 2007, Hogan 2008) was “does not displace”. Besides, the “affinity for [^3H][3-Me-His^2]TRH-labelled native TRH receptors, rat hippocampal tissue homogenate (in words)” value in [6] was “high affinity”. Also, the “displacement of [^3H][3-Me-His^2]TRH binding from human CNS tissue (in words)” value in assay [7] (human CNS tissue) is reported as “found to displace”. The “binding to TRH receptors in human brain and spinal cord (in words)” value in assay [7] (human brain and spinal cord) is recorded as “binds”. Further, the “displacement of [^3H][3-Me-His^2]TRH binding from CHO-TRHR2 membranes (in words)” value in [8] is “does not displace”. In assay [9] (human pituitary), the “binding to TRH receptors in human pituitary (in words)” value is on record as “not pituitary”. Also, the “displacement of [^3H][3-Me-His^2]TRH binding from human pituitary (in words)” value in [9] (human pituitary membranes) is “does not displace; also recorded: did not displace”. In addition, the Ki in assay [10] was found to be 0.011 µM; in [11], 0.0068 µM. Besides, the “affinity for [^3H][3-Me-His^2]TRH-labelled native TRH receptors, rat cortical tissue homogenate (in words)” value in [12] (Scalabrino 2007, Hogan 2008) is “high affinity”.

Regarding `Cc1cc(=O)oc2cc(NC(=O)[C@@H](Cc3c[nH]c4ccccc34)NC(=O)[C@@H](Cc3ccc(O)cc3)NC(=O)[C@@H]3CCCN3C(=O)[C@H](CC(N)=O)NC(=O)[C@@H]3CCC(=O)N3)ccc12` [Glp-Asn-Pro-DTyr-DTrp-AMC] ([pGlu]NP[dY][dW]-{AMC}), in [5], the IC50 is above 100 µM. In addition, the Ki in [10] was determined as 0.022 µM; in [11] it was 0.0017 µM.

Turning to `Cc1cc(=O)oc2cc(NC(=O)[C@@H](Cc3c[nH]c4ccccc34)NC(=O)[C@@H](Cc3c[nH]c4ccccc34)NC(=O)[C@@H](Cc3ccc(O)cc3)NC(=O)[C@@H]3CCCN3C(=O)[C@H](CC(N)=O)NC(=O)[C@@H]3CCC(=O)N3)ccc12` [Glp-Asn-Pro-DTyr-DTrp-DTrp-AMC] ([pGlu]NP[dY][dW][dW]-{AMC}), the IC50 in assay [5] is above 100 µM. For the same molecule, the Ki worked out at 0.03 µM in [10] and 0.025 µM in [11].

`Cc1cc(=O)oc2cc(NC(=O)[C@H](Cc3c[nH]c4ccccc34)NC(=O)[C@H](Cc3ccc(O)cc3)NC(=O)[C@@H]3CCCN3C(=O)[C@H](CC(N)=O)NC(=O)[C@@H]3CCC(=O)N3)ccc12` [Glp-Asn-Pro-LTyr-LTrp-AMC] ([pGlu]NPYW-{AMC}): the IC50 in assay [5] was above 100 µM. For the same molecule, the Ki in assay [10] amounted to 0.08 µM; in [11] it was 0.33 µM.

As to `Cc1cc(=O)oc2cc(NC(=O)[C@H](Cc3c[nH]c4ccccc34)NC(=O)[C@H](Cc3c[nH]c4ccccc34)NC(=O)[C@H](Cc3ccc(O)cc3)NC(=O)[C@@H]3CCCN3C(=O)[C@H](CC(N)=O)NC(=O)[C@@H]3CCC(=O)N3)ccc12` [Glp-Asn-Pro-LTyr-LTrp-LTrp-AMC] ([pGlu]NPYWW-{AMC}), in assay [5], the IC50 is above 100 µM. The Ki in assay [10] came out at 0.0088 µM.

In the case of `NC(=O)C[C@H](NC(=O)[C@@H]1CCC(=O)N1)C(=O)N1CCC[C@H]1C(=O)N[C@@H](Cc1ccc(O)cc1)C(=O)N[C@@H](Cc1c[nH]c2ccccc12)C(N)=O` [Glp-Asn-Pro-LTyr-LTrp-NH2] ([pGlu]NPYW-NH2), the concentration for half-maximal inhibition (IC50) in assay [2] and in [5] was above 100 µM each time. Also, the Ki in assay [10] is 0.12 µM; in assay [11] it was 0.11 µM.

For the molecule `NC(=O)[C@@H]1CCCN1C(=O)[C@H](Cc1cnc[nH]1)NC(=O)[C@@H]1CCC(=O)N1` [TRH, Thyrotropin releasing hormone, reference compound], the half-inhibitory concentration (IC50) in [7] (setting [14]) is around 0.01 µM; in [9] (human pituitary, 5 h at 4° C., read-out: IC50, displacement of [^3H][3-Me-His^2]TRH from pituitary tissue) it was around 0.01 µM. In addition, in assay [12] (prior studies, read-out: Ki, competition for [^3H][3-Me-His^2]TRH sites on rat brain cortical membranes), the Ki was around 0.025 µM.

As for `Cn1cnc(C[C@H](NC(=O)[C@@H]2CCC(=O)N2)C(=O)N2CCC[C@H]2C(N)=O)c1` [[3-Me-His2]TRH, reference compound], the IC50 in [2] turned out to be 0.0175 µM; in assay [5], 0.0112 µM. Moreover, the figures for the inhibition constant (Ki) in assay [10] and in assay [11] were 0.034 µM and 0.074 µM, respectively.

Regarding [^3H][3-Me-His^2]TRH, the dissociation constant Kd in assay [13] was 0.007 to 0.01 µM; in assay [4] (single population of high-affinity sites, prior studies, read-out: Kd of radioligand binding, rat pituitary tissue), 0.0022 µM; in assay [12] (single population of high affinity sites, prior studies, read-out: Kd of radioligand binding, rat brain cortical membranes), around 0.005 µM.
